From patent US11267826B2, “Penicillin-binding protein inhibitors” (priority 2017, dated 2022)

Key:
[1] = tested on: E. coli DH5a harboring NDM-1; experiment: Broth microdilution MIC, engineered E. coli expressing NDM-1; type: cell-based; conditions: Escherichia coli, read-out: MIC, β-lactamase NDM
Experimental: (§1) To determine the ability of test compounds to potentiate the inhibition of the growth of bacterial strains, classic cell based broth microdilution MIC assays were employed. MIC assays are performed according to CLSI methods except where otherwise noted (CLSI, 2011 and CLSI, 2009). The reference strain S. aureus ATCC 29213 and the hyper-permeable E. coli 901C were used to determine the ability of the PBP compounds to inhibit bacterial growth. Briefly, cryo-preserved bacterial cultures of clinical strains are streaked for isolation on appropriate agar medium, in this case Mueller Hinton II agar. Following incubation to allow formation of colonies these plates are sealed with parafilm and stored refrigerated for up to two weeks. For preparation of assay inocula and to ensure low variability, at least 5 colonies are picked from the agar plates with an inoculating loop and aseptically transferred to a culture tube containing 3 mL of Mueller-Hinton Broth (supplemented with divalent cations to required levels based on Manufacturers' certification). The broth culture is grown for 3-5 hours at 37° C. with shaking at 200 rpm. Meanwhile, 2-fold serial dilutions of test compounds are conducted in a 96 well plate with a final volume of 75 μL per well at 2-fold the final desired concentration. After the dilution plates are set up the growing cultures are then diluted in a cuvette containing MH II broth and the optical density is measured at 600 nm. Inocula are diluted such that 75 μL of this culture in Mueller-Hinton Broth results in a starting bacterial concentration of 5×10^5 CFU/mL when added to the dilution plates. The plates are incubated 16-20 hours at 37° C. The MIC is read visually as the lowest concentration well with no bacterial growth.
(§2) To determine if test compounds were affected by various known β-lactamases, the inhibition of the growth of engineered strains of Escherichia coli harboring select single β-lactamases were tested. […]

[2] = tested on: E. coli DH5a harboring SHV-5; experiment: Broth microdilution MIC, engineered E. coli expressing SHV-5; type: cell-based; conditions: Escherichia coli, read-out: MIC, β-lactamase SHV
Experimental: as §1, §2

[3] = tested on: E. coli DH5a harboring KPC-2; experiment: microbe, parasite or virus in culture; type: cell-based; conditions: Escherichia coli, read-out: MIC, β-lactamase KPC
Experimental: To determine the ability of test compounds to potentiate the inhibition of the growth of bacterial strains, classic cell based broth microdilution MIC assays were employed. MIC assays are performed according to CLSI methods except where otherwise noted (CLSI, 2011 and CLSI, 2009). The reference strain S. aureus ATCC 29213 and the hyper-permeable E. coli 901C were used to determine the ability of the PBP compounds to inhibit bacterial growth. Briefly, cryo-preserved bacterial cultures of clinical strains are streaked for isolation on appropriate agar medium, in this case Mueller Hinton II agar. Following incubation to allow formation of colonies these plates are sealed with parafilm and stored refrigerated for up to two weeks. For preparation of assay inocula and to ensure low variability, at least 5 colonies are picked from the agar plates with an inoculating loop and aseptically transferred to a culture tube containing 3 mL of Mueller-Hinton Broth (supplemented with divalent cations to required levels based on Manufacturers' certification). The broth culture is grown for 3-5 hours at 37° C. with shaking at 200 rpm. […] After the dilution plates are set up the growing cultures are then diluted in a cuvette containing MH II broth and the optical density is measured at 600 nm. […] The MIC is read visually as the lowest concentration well with no bacterial growth. […]

[4] = tested on: engineered strains of Escherichia coli harboring select single β-lactamases; experiment: MIC across the panel of engineered E. coli strains harboring select single β-lactamases; type: cell-based; conditions: strains expressing β-lactamases compared with control strain, result in words
Experimental: To determine if test compounds were affected by various known β-lactamases, the inhibition of the growth of engineered strains of Escherichia coli harboring select single β-lactamases were tested. These strains were constructed by cloning the gene encoding the particular β-lactamase into the NdeI and BamHI restriction endonuclease sites of plasmid pLBII, placing the gene(s) under the control of the Lac promoter.

[5] = tested on: E. coli DH5a with pLBII plasmid with no β-lactamase gene; experiment: Broth microdilution MIC, engineered E. coli control strain (pLBII plasmid, no β-lactamase gene); type: cell-based; conditions: Escherichia coli, read-out: MIC, β-lactamase None
Experimental: as §1, §2

[6] = tested on: S. aureus ATCC 29213; experiment: Broth microdilution MIC assay, S. aureus; type: cell-based; conditions: Staphylococcus aureus, ATCC29213; broth microdilution, 16-20 hours at 37° C.; read-out: S. aureus 29213 MIC
In short: (§3)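 Visual no-growth endpoint defines the MIC. Inoculum of 5×10^5 CFU/mL in divalent-cation-supplemented Mueller-Hinton broth was exposed to 2-fold dilution series of compound, then incubated 16-20 hours at 37° C per CLSI.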

[7] = tested on: E. coli DH5a harboring CTX-M15; experiment: Broth microdilution MIC, engineered E. coli expressing CTX-M15; type: cell-based; conditions: Escherichia coli, read-out: MIC, β-lactamase CTXM
Experimental: as §1, §2

[8] = tested on: E. coli DH5a harboring OXA-48; experiment: Broth microdilution MIC, engineered E. coli expressing OXA-48; type: cell-based; conditions: Escherichia coli, read-out: MIC, β-lactamase OXA
Experimental: as §1, §2

[9] = tested on: E. coli K12 PBP1a/b; experiment: Bocillin FL competition binding assay, PBP1a/1b combined; set-up: species or system Escherichia coli K12; conditions: 15 min pre-incubation, PBP 1a/1b combined
In short: (§4)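 E. coli K12 membrane extracts (100 µg protein) pre-incubated 15 min with compound (0.005–2,480 µg/mL) in pH 7 phosphate/350 mM NaCl, then labelled with Bocillin FL 30 min at 35°C; SDS-PAGE fluorescence (ex 450/em 520 nm), μg/mL reported. PBP1a/1b unresolved, reported combined.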

[10] = tested on: E. coli DH5a harboring TEM-24; experiment: Broth microdilution MIC, engineered E. coli expressing TEM-24; type: cell-based; conditions: Escherichia coli, read-out: MIC, β-lactamase TEM
Experimental: as §1, §2

[11] = tested on: E. coli DH5a harboring IMP-18; experiment: Broth microdilution MIC, engineered E. coli expressing IMP-18; type: cell-based; conditions: Escherichia coli, read-out: MIC, β-lactamase IMP
Experimental: as §1, §2

[12] = target: T1, E. coli PBP2 (Escherichia coli, UniProt P0AD65); experiment: Bocillin FL competition binding assay, PBP2; set-up: species or system Escherichia coli K12; conditions: 15 min pre-incubation
T1 construct: 100 μg's of total membrane protein extracts containing PBPs; endogenous in cells; host or cells: Escherichia coli K12, membrane protein fraction
T1 sequence (P0AD65 whole entry): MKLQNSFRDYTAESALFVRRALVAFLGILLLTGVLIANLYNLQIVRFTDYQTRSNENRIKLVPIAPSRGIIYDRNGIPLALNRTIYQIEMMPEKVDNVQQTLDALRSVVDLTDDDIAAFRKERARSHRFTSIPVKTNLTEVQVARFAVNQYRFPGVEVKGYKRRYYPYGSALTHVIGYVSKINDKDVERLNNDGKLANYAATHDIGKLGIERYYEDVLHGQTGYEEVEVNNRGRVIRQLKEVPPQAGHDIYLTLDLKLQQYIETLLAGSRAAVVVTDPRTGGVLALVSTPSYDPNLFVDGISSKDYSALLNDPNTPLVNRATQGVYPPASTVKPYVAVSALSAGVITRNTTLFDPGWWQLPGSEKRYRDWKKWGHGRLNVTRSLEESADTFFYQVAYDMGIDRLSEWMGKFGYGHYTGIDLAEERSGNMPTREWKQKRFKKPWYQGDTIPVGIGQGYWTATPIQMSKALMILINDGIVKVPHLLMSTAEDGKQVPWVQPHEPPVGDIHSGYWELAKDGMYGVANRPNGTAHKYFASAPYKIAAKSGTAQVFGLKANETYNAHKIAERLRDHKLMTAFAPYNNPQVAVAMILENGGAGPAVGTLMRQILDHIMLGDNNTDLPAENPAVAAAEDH
In short: as §4

[13] = tested on: hyper-permeable E. coli 901C; experiment: Broth microdilution MIC assay, hyper-permeable E. coli; type: cell-based; conditions: Escherichia coli, read-out: E. coli 901C MIC
In short: as §3

[14] = target: T2, E. coli PBP3 (Escherichia coli, UniProt P0AD68); experiment: Bocillin FL competition binding assay, PBP3; set-up: species or system Escherichia coli K12; conditions: 15 min pre-incubation
T2 construct: 100 μg's of total membrane protein extracts containing PBPs; endogenous in cells; host or cells: Escherichia coli K12, membrane protein fraction
T2 sequence (P0AD68 1-577): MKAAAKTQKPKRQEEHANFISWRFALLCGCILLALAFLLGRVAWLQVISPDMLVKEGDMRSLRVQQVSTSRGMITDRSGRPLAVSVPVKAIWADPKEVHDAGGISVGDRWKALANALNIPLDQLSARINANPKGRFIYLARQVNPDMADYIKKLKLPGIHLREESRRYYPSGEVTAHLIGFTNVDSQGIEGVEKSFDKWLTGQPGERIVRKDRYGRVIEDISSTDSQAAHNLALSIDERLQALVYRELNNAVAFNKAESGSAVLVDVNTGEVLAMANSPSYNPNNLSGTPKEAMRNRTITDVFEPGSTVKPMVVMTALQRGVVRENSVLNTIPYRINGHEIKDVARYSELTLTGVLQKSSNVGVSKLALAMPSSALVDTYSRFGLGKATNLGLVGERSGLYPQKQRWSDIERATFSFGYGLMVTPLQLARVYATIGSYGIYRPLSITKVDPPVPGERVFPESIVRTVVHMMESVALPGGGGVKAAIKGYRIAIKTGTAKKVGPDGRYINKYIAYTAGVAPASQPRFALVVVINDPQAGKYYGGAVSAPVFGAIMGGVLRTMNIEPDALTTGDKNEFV
In short: as §4

[15] = tested on: E. coli DH5a harboring VIM-2; experiment: Broth microdilution MIC, engineered E. coli expressing VIM-2; type: cell-based; conditions: Escherichia coli, read-out: MIC, β-lactamase VIM
Experimental: as §1, §2

For `CO/N=C(\C(=O)N[C@H]1Cc2cccc(C(=O)O)c2OB1O)c1csc(N)n1` [Example 1, (R,Z)-3-(2-(2-aminothiazol-4-yl)-2-(methoxyimino)acetamido)-2-hydroxy-3,4-dihydro-2H-benzo[e][1,2]oxaborinine-8-carboxylic Acid], which MIC [1] is on record?
Its MIC is 8 mg/L.

What about the MIC [2] of the same molecule?
Its MIC is 8 mg/L.

And the MIC [3]?
Its MIC is 4 mg/L.

And the “Effect of expressed β-lactamase on MIC” value [4]?
The value was “the same MIC values in strains regardless of the β-lactamase expressed”.

And the MIC [5]?
The MIC was 8 mg/L.

And the MIC [6]?
The MIC was 64 to 128 mg/L.

What about the MIC [7] of the same molecule?
The MIC was 8 mg/L.

And the MIC [8]?
The MIC was 8 mg/L.

And the “E. coli K12 PBP1a/b Potency” value [9]?
Its value is “C (C represents a potency of <64 μg/mL)”.

What about the MIC [10] of the same molecule?
The MIC was 8 mg/L.

And the MIC [11]?
The MIC was 8 mg/L.

And the “E. coli PBP2 Potency” value [12]?
Its value is “A (A represents a potency of >1000 μg/mL)”.

What about the MIC [13] of the same molecule?
The MIC was under 64 mg/L.

And the “E. coli PBP3 Potency” value [14]?
Its value is “C (C represents a potency of <64 μg/mL)”.

What about the MIC [15] of the same molecule?
Its MIC is 8 mg/L.
